The subject of series [1] is subjects with acute exacerbation of their schizophrenic illness. The series is described as follows: Randomized double blind, fixed-dose 6-week trial: efficacy on disease symptoms (PANSS). It is filed as in vivo, human. The conditions noted are these: asenapine 5 mg twice a day sublingual, risperidone 3 mg twice daily, 6 weeks, compared with placebo.
For series [2] the following is noted: among atypical antipsychotics, literature review; cited from earlier work.
Where [3] appears, read: All-Subjects-Treated Group, baseline to day 42 or final day of treatment.

Where “and” joins values, the source holds several entries; their conditions need not be identical. Equal entries are not always repeated. Where two headings read alike, the source gives them in different places.

For `CN1C[C@@H]2c3ccccc3Oc3ccc(Cl)cc3[C@H]2C1` (relative stereo) [asenapine, trans-5-chloro-2-methyl-2,3,3a,12b-tetrahydro-1H-dibenz[2,3:6,7]oxepino[4,5-c]pyrrole], in series [1], the “efficacy in reducing the symptoms of schizophrenia” value is reported as “significantly more effective than placebo”. Moreover, the “number of subjects with greater than 10% weight gain from baseline” value (All-Subjects-Treated Group) was 1. Moreover, under setting [3], the “number of subjects (n) with clinically significant decrease of ≧7% from baseline in body weight” value was 0; the “number of subjects (n) with clinically significant increase of ≧7% from baseline in body weight” value came out at 2; the “subjects with clinically significant decrease of ≧7% from baseline in body weight, %” value was found to be 0.0%; the “subjects with clinically significant weight gain (increase from baseline of ≧7%), %” value was 4% and 4.3%. Also, the “subjects with clinically significant weight gain (increase from baseline of ≧7%), %” value (All-Subjects-Treated Group, baseline to day 42 or final day of treatment, listed as Asenapine) is recorded as 4.3%. For the same compound, for the setting “at end point, group result”, the “increase in body weight from baseline” value turned out to be 0.5%. Also, under “overall conclusion of the 6-week trial”, the other side effects result is “minimal other side effects”.
Take `Cc1cc2c(s1)Nc1ccccc1N=C2N1CCN(C)CC1` [olanzapine]: the “weight gain associated with the drug” value in series [2] was “largest weight gains”.
On to `OCCOCCN1CCN(C2=Nc3ccccc3Sc3ccccc32)CC1` [quetiapine], for which the “weight gain associated with the drug” value in series [2] was “smallest”.
As to `Cc1nc2n(c(=O)c1CCN1CCC(c3noc4cc(F)ccc34)CC1)CCCC2` [risperidone, reference compound], in series [1], the “efficacy in reducing the symptoms of schizophrenia” value is given as “significantly more effective than placebo”. Besides, for the setting “All-Subjects-Treated Group”, the “number of subjects with greater than 10% weight gain from baseline” value is 2. Under setting [3], the “number of subjects (n) with clinically significant decrease of ≧7% from baseline in body weight” value stood at 1 and the “number of subjects (n) with clinically significant increase of ≧7% from baseline in body weight” value was 8. For the same compound, the “weight gain associated with the drug” value in series [2] is given as “modest weight changes that are not dose related”.
With `O=C1Cc2cc(CCN3CCN(c4nsc5ccccc45)CC3)c(Cl)cc2N1` [ziprasidone], in series [2], the “weight gain associated with the drug” value was “smallest”.

These data come from patent publication US20060128688A1, “Asenapine for the treatment of schizophrenia in a patient with overweight or predisposition for overweight” (priority 2003, published 2006).
